Experimental data reported in article PMC11123012, “Bioactive Alkaloids from the Mangrove-Derived Fungus Nigrospora oryzae SYSU-MS0024” (Marine Drugs, 2024).

What was measured:
[1] = test system: BV-2 cells; assay: LPS-induced NO production in BV-2 cells; format: cell-based; conditions: mean ± SD of five replicates
Method: (§1) NO determination: all compounds were examined for the effect on the release of NO by BV-2 cell lines using the method described previously. All experiments were carried out in five replicates. Microglia Viability Assay: The effects of compounds 1–11 on the viability of BV2 microglia were carried out by MTT assay. BV2 microglia were first seeded at a density of 4000 cells per well for 12 or 24 h using a 96-well plate and then treated with compounds at the concentrations of 1– 100 μmol/L for another 36 h. After that, cells were incubated with MTT (0.5 mg/mL) in a 5% CO2 incubator at 37 °C. Three hours later, the medium was removed, and DMSO (150 μL) was added into each well to dissolve formazan crystals. The […] absorbances were measured at 570 nm using an ELISA microplate reader (Biotek, Winooski, VT, USA).

[2] = test system: BV2 microglia; assay: Microglia viability assay (MTT); format: cell-based; conditions: BV-2 cells, concentration of 100.0 μmol/L
Method: as §1

[3] = target: AChE (Homo sapiens, UniProt P22303); assay: biochemical; conditions: three replicates; read-out: AChE inhibitory activity IC50
Chain of AChE (P22303 32-614): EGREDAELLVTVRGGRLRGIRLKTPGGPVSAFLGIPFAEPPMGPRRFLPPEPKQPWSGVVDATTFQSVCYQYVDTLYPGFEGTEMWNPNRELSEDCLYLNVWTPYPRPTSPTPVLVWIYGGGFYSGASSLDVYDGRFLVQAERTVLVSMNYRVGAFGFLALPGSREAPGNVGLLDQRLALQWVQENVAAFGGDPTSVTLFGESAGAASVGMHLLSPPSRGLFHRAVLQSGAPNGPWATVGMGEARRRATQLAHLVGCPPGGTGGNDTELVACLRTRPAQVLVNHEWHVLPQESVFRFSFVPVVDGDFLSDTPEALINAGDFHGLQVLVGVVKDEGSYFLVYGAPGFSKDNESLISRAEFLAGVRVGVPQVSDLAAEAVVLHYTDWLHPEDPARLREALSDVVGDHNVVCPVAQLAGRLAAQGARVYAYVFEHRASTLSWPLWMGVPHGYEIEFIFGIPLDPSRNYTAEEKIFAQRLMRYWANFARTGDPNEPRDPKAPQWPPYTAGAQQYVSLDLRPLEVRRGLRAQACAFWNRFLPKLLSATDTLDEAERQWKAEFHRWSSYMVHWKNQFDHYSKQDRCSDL
Method: All compounds were examined for inhibitory activity against AChE using an optimized colorimetric method described previously. All tests were carried out in three replicates. Donepezil hydrochloride was taken as the positive control.

[4] = DPPH free radical scavenging assay; conditions: three replicates, read-out: antioxidant activity EC50
Method: An optimized colorimetric method described previously was used to evaluate the DPPH free radical scavenging activities of compounds 1–11 [37]. All tests were measured in three replicates. Vitamin C was taken as a positive control.

[5] = test system: influenza A virus H1N1; parameters: method as in PMID 34052697; conditions: read-out: anti-influenza A virus H1N1 activity IC50; cited from earlier work

Which “NO accumulation induced by LPS” value ([1]; compound at 20 μmol/L) does the source give for `CC(O)C12CCC(=O)N1c1ccccc1CO2` (centres unmarked) [Compound 2, Nigrosporine B] here?
Its value is 47.2 ± 0.2 ng/mL.

What about the “NO accumulation induced by LPS” value ([1]; compound at 50 μmol/L) of the same molecule?
The value was 41.7 ± 0.4 ng/mL.

What about the “NO accumulation induced by LPS” value ([1]; compound at 100 μmol/L) of the same molecule?
The value was 21.8 ± 0.1 ng/mL.

And the “cytotoxicity (BV-2 cell viability)” value [2]?
The value was “without cytotoxicity”.

What about the IC50 [3] of the same molecule?
The IC50 was 104 µM.

Which EC50 [4] does the source give for `CC(=O)Nc1ccccc1O` [Compound 5, N-(2-hydroxyphenyl)-acetamide] here?
Its EC50 is 167 µM.

For `O=C1O[C@H]([C@@H](O)CO)C(O)=C1O` [Vitamin C, reference compound], which EC50 [4] is on record?
Its EC50 is 146 µM.

With `CC[C@@H](C)C1=C2NC(=O)[C@@](O)(C/C(=C\C=O)OC)C(=O)N2[C@H](C(C)C)C(=O)N1` [deg-pyrasplorine B] as the molecule, how does the IC50 [5] read?
Its IC50 is 50 µM.
